Source: ChEMBL document CHEMBL4619766, “Eudesmacarbonate, a Eudesmane-Type Sesquiterpene from a Marine Filamentous Cyanobacterial Mat (Oscillatoriales) in the Florida Keys” (J Nat Prod, 2020)

Legend:
[1] = Toxicity in 4 to 5 hpf stage wild type zebrafish AB embryo assessed as effect on heart rate at 9.4 to 94 uM under 14 hrs light and 10 hrs dark condition and measured at 3 dpf stage by microscopic analysis; design: species or system Danio rerio; settings: in vivo
Danio rerio [2] = organism: Danio rerio; test: Induction of larval immobilization in 7 dpf stage zebra fish PSA assessed as immobilization recovery level at 110 uM incubated for 90 mins followed by medium replacement and measured within 10 mins relative to control; format: toxicity, organism-based; settings: zebrafish, in vivo, 1.5 h
[3] = Neurotoxicity in 4 to 5 hpf stage wild type zebrafish AB embryo assessed as irregular development of swim bladder dysfunction at 9.4 to 94 uM under 14 hrs light and 10 hrs dark condition and measured at 5 dpf stage by microscopic analysis; format: toxicity, Danio rerio; settings: in vivo
[4] = Neurotoxicity in 4 to 5 hpf stage wild type zebrafish AB embryo assessed as effect on spasms at 9.4 to 94 uM under 14 hrs light and 10 hrs dark condition and measured at 5 dpf stage by microscopic analysis; format: toxicity, Danio rerio; settings: in vivo
[5] = Neurotoxicity in 7 dpf stage zebra fish PSA larvae assessed induction of larval immobilization at 38 uM measured over 90 mins; format: toxicity, Danio rerio; settings: zebrafish, 1.5 h
[6] = Neurotoxicity in 4 to 5 hpf stage wild type zebrafish AB embryo assessed as irregular inflated swim bladder at 9.4 to 94 uM under 14 hrs light and 10 hrs dark condition and measured at 5 dpf stage by microscopic analysis; format: toxicity, Danio rerio; settings: in vivo
[7] = Neurotoxicity in 7 dpf stage zebra fish PSA larvae assessed induction of larval immobilization at 110 to 190 uM measured within 45 mins; format: toxicity, Danio rerio; settings: zebrafish, 0.75 h
Danio rerio [8] = organism: Danio rerio; test: Induction of larval immobilization in 7 dpf stage zebra fish PSA assessed as immobilization recovery level at 190 uM incubated for 90 mins followed by medium replacement and measured within 10 mins relative to control; format: toxicity, organism-based; settings: zebrafish, in vivo, 1.5 h
[9] = Neurotoxicity in 4 to 5 hpf stage wild type zebrafish AB embryo assessed as induction of head butting at 9.4 to 94 uM under 14 hrs light and 10 hrs dark condition and measured at 5 dpf stage by microscopic analysis; format: toxicity, Danio rerio; settings: in vivo
[10] = Neurotoxicity in 4 to 5 hpf stage wild type zebrafish AB embryo assessed as effect on spontaneous coiling frequency at >= 38 uM under 14 hrs light and 10 hrs dark condition and measured at 24 hpf stage by microscopic analysis; format: toxicity, Danio rerio; settings: in vivo
[11] = Neurotoxicity in 4 to 5 hpf stage wild type zebrafish AB embryo assessed as induction of motor incoordination at 9.4 to 94 uM under 14 hrs light and 10 hrs dark condition and measured at 5 dpf stage by microscopic analysis; format: toxicity, Danio rerio; settings: in vivo
[12] = Neurotoxicity in 4 to 5 hpf stage wild type zebrafish AB embryo assessed as induction of head butting at 4.5 to 22 nM under 14 hrs light and 10 hrs dark condition and measured at 5 dpf stage by microscopic analysis; format: toxicity, Danio rerio; settings: in vivo, 0.022 µM
[13] = Neurotoxicity in 4 to 5 hpf stage wild type zebrafish AB embryo assessed as irregular inflated swim bladder at 4.5 to 22 nM under 14 hrs light and 10 hrs dark condition and measured at 5 dpf stage by microscopic analysis; format: toxicity, Danio rerio; settings: in vivo, 0.022 µM
[14] = Toxicity in 4 to 5 hpf stage wild type zebrafish AB embryo assessed as induction of bradycardia at 4.5 to 22 nM under 14 hrs light and 10 hrs dark condition and measured at 3 dpf stage by microscopic analysis; design: species or system Danio rerio; settings: in vivo, 0.022 µM
[15] = Neurotoxicity in 4 to 5 hpf stage wild type zebrafish AB embryo assessed as induction of motor incoordination at 4.5 to 22 nM under 14 hrs light and 10 hrs dark condition and measured at 5 dpf stage by microscopic analysis; format: toxicity, Danio rerio; settings: in vivo, 0.022 µM
[16] = Neurotoxicity in 4 to 5 hpf stage wild type zebrafish AB embryo assessed as reduction in spontaneous coiling frequency at 4.5 to 22 nM under 14 hrs light and 10 hrs dark condition and measured at 24 hpf stage by microscopic analysis; format: toxicity, Danio rerio; settings: in vivo, 0.022 µM
[17] = Neurotoxicity in 4 to 5 hpf stage wild type zebrafish AB embryo assessed as effect on spasms at 4.5 to 22 nM under 14 hrs light and 10 hrs dark condition and measured at 5 dpf stage by microscopic analysis; format: toxicity, Danio rerio; settings: in vivo, 0.022 µM

Compound | Activity [1] | Activity (Danio rerio [2]) | Activity [3] | Activity [4] | Activity [5] | Activity [6] | Activity [7] | Activity (Danio rerio [8]) | Activity [9] | Activity [10] | Activity [11] | Activity [12] | Activity [13] | Activity [14] | Activity [15] | Activity [16] | Activity [17]
CC(C)[C@@H]1CC[C@]2(C)CCC[C@]3(C)OC(=O)O[C@H]1[C@@H]23 | Toxic | 87% | Toxic | Toxic | Non-Toxic | Toxic | Toxic | 47% | Toxic | Toxic | Toxic | – | – | – | – | – | –
C=C(C=O)C[C@@H]1C[C@H](O)[C@]2(C)O[C@@H]3C[C@@H]4O[C@@H]5C[C@]6(C)O[C@]7(C)CC[C@@H]8O[C@@H]9C[C@]%10(C)O[C@@H]%11C(C)=CC(=O)O[C@H]%11C[C@H]%10O[C@H]9C[C@@H](C)[C@H]8O[C@H]7C[C@H]6O[C@@]5(C)C/C=C\[C@H]4O[C@H]3C[C@H]2O1 [BREVETOXIN B] | – | – | – | – | – | – | – | – | – | – | – | Toxic | Toxic | Toxic | Toxic | Non-Toxic | Toxic
